system: M17-TAU P301L cells; assay: TAU cytotoxicity assay: LDH leakage of retinoic acid incubated M17-TAU P301L cells; assay type: cell-based, human; conditions: Homo sapiens, 168 h, reduction of LDH activity of retinoic acid incubated M17-TAU P301L cells, 7 days
Text: A TAU expression plasmid was constructed by sub-cloning the cDNA of human TAU-P301 L (encoding for TAU with proline 301 substituted by a leucine residue) into mammalian expression vector pcDNA3.1 resulting in plasmid pcDNA3.1-TAU P301L. Plasmids pcDNA3.1 and pcDNA3.1-TAU P301L were transfected to human neuroblastoma cells ([…]; ATCC No. CRL-2267) and independent clonal lines with the plasmids stably integrated into the genome were selected. […] Expression of the TAU P301L genes in the cell lines was confirmed by Western analysis.
In degenerated or dead cells lactate dehydrogenase (LDH) is leaked out of the cells into the extracellular environment due to a loss of plasma-membrane integrity. This principle was used to determine cytotoxicity by quantifying the level of leaked LDH into the growth medium.
The detailed method for determining TAU cytotoxicity was as follows: From appropriate precultures of M17-3.1 and M17-TAU(P301L) cells were seeded at 2500 cells/cm2 in Optimem Reduced Serum without phenol red (Gibco, Cat. 31985-047) supplemented with 1% fetal calf serum, 1 mM sodium pyruvate, 1× non-essential amino acids, 500 μg/ml G418 0.5× antibiotic/antimycotic. After 3 h of incubation at 37° C./5% CO2 1 volume of Optimem Reduced Serum (same as described above; except without fetal calf serum) supplemented with 2.5 μM retinoic acid (RA) was added. The cells were further incubated for 7 days. Subsequently, LDH activity was determined using Promega Cytotox 96 Non-Radioactive cytotoxicity assay, (Cat. G1780) according the supplier's instructions.
The M17-TAU P301L cell line made it possible to assess the ability of novel compounds to counteract TAU cytotoxicity. […] These measurements were used to calculate EC50 values of table 2.
Exemplary compounds of the present invention are shown in table 2, with their chemical name and their EC50 value (expressed in nM) as determined from example 196 in the Tau-induced toxicity experiment.

| SMILES | EC50 |
| --- | --- |
| O=C(NCCc1c[nH]c2ccc(Cl)cc12)c1noc(Cc2c(F)cccc2F)n1 [Example D188, N-(2-(5-chloro-1H-indol-3-yl)ethyl)-5-(2,6-difluorobenzyl)-1,2,4-oxadiazole-3-carboxamide] | 41 nM |
| O=C(NCCc1c[nH]c2ccc(Cl)cc12)c1nnc(Cc2ccccc2)o1 [Example D60, 5-benzyl-N-(2-(5-chloro-1H-indol-3-yl)ethyl)-1,3,4-oxadiazole-2-carboxamide] | 213 nM |
| O=C(NCCc1c[nH]c2ccc(Cl)cc12)C1CCN(c2ccc(C(F)(F)F)c(F)c2)C1=O (stereo not drawn) [Example D150, N-(2-(5-chloro-1H-indol-3-yl)ethyl)-1-(3-fluoro-4-(trifluoromethyl)phenyl)-2-oxopyrrolidine-3-carboxamide] | 23300 nM |
| Cc1nc(-c2ccccc2)sc1C(=O)NCCc1c[nH]c2ccc(Cl)cc12 [Example D46, N-(2-(5-chloro-1H-indol-3-yl)ethyl)-4-methyl-2-phenylthiazole-5-carboxamide] | 123 nM |
| Cc1ccc(Nc2nc(C(=O)NCCc3c[nH]c4ccccc34)cs2)cc1 [Example D110, N-(2-(1H-indol-3-yl)ethyl)-2-(p-tolylamino)thiazole-4-carboxamide] | 274 nM |
| O=C(NCCc1c[nH]c2ccc(Cl)cc12)c1cc(-c2cccs2)on1 [Example D16, N-(2-(5-chloro-1H-indol-3-yl)ethyl)-5-(thiophen-2-yl)isoxazole-3-carboxamide] | 21 nM |
| COc1ccc2[nH]cc(CCNC(=O)c3c(-c4ccccc4)noc3C)c2c1 [Example D109, N-(2-(5-methoxy-1H-indol-3-yl)ethyl)-5-methyl-3-phenylisoxazole-4-carboxamide] | 3110 nM |
| O=C(NCCc1c[nH]c2ccc(Cl)cc12)c1cc(Cc2ccoc2)on1 [Example D22, N-(2-(5-chloro-1H-indol-3-yl)ethyl)-5-(furan-3-ylmethyl)isoxazole-3-carboxamide] | 28 nM |
| O=C(NCCc1c[nH]c2ccc(Cl)cc12)c1ncc(-c2ccccc2)o1 [Example D53, N-(2-(5-chloro-1H-indol-3-yl)ethyl)-5-phenyloxazole-2-carboxamide] | 171 nM |
| CC(C)(C)c1ccc(Cc2nc(C(=O)NCCc3c[nH]c4ccc(Cl)cc34)no2)cc1 [Example D176, 5-(4-tert-butylbenzyl)-N-(2-(5-chloro-1H-indol-3-yl)ethyl)-1,2,4-oxadiazole-3-carboxamide] | 100 nM |
| O=C(NCCc1c[nH]c2ccc(Cl)cc12)C1CCN(CC2CCCCC2)C1=O (stereo not drawn) [Example D164, N-(2-(5-chloro-1H-indol-3-yl)ethyl)-1-(cyclohexylmethyl)-2-oxopyrrolidine-3-carboxamide] | 320 nM |
| COc1cccc(Cc2cc(C(=O)NCCc3c[nH]c4ccc(Cl)cc34)no2)c1F [Example D21, N-(2-(5-chloro-1H-indol-3-yl)ethyl)-5-(2-fluoro-3-methoxybenzyl)isoxazole-3-carboxamide] | 25 nM |
| N#Cc1cccc(Cc2cc(C(=O)NCCc3c[nH]c4ccc(Cl)cc34)no2)c1 [Example D3, N-(2-(5-chloro-1H-indol-3-yl)ethyl)-5-(3-cyanobenzyl)isoxazole-3-carboxamide] | 6 nM |
| O=C(NCCCc1c[nH]c2ccc(Cl)cc12)c1cc(Cc2cccc(F)c2)on1 [Example D35, N-(3-(5-chloro-1H-indol-3-yl)propyl)-5-(3-fluorobenzyl)isoxazole-3-carboxamide] | 60 nM |
| Cc1cc(C(=O)NCCc2c[nH]c3ccccc23)c(C)n1C1CC1 [Example D72, N-(2-(1H-indol-3-yl)ethyl)-1-cyclopropyl-2,5-dimethyl-1H-pyrrole-3-carboxamide] | 453 nM |
| N#Cc1ccc2[nH]cc(CCNC(=O)c3cc(Cc4cc(F)ccc4F)on3)c2c1 [Example D137, N-(2-(5-cyano-1H-indol-3-yl)ethyl)-5-(2,5-difluorobenzyl)isoxazole-3-carboxamide] | 32 nM |
| Cc1ccc(Cc2cc(C(=O)NCCc3c[nH]c4ccc(Cl)cc34)no2)cc1 [Example D12, N-(2-(5-chloro-1H-indol-3-yl)ethyl)-5-(4-methylbenzyl)isoxazole-3-carboxamide] | 17 nM |
| O=C(NCCc1c[nH]c2ccc(Cl)cc12)c1cn(C2CCCCC2)nn1 [Example D44, N-(2-(5-chloro-1H-indol-3-yl)ethyl)-1-cyclohexyl-1H-1,2,3-triazole-4-carboxamide] | 108 nM |
| Cn1ccc2cc(N3CCC(C(=O)NCCc4c[nH]c5ccc(Cl)cc45)C3=O)ccc21 (stereo not drawn) [Example D167, N-(2-(5-chloro-1H-indol-3-yl)ethyl)-1-(1-methyl-1H-indol-5-yl)-2-oxopyrrolidine-3-carboxamide] | 506 nM |
| Cc1ccc(-c2nc(C)c(C(=O)NCCc3c[nH]c4ccc(Cl)cc34)s2)cc1 [Example D45, N-(2-(5-chloro-1H-indol-3-yl)ethyl)-4-methyl-2-p-tolylthiazole-5-carboxamide] | 113 nM |
| O=C(NCCc1c[nH]c2ccc(Cl)cc12)c1cc(CN2CCCC2)on1 [Example D61, N-(2-(5-chloro-1H-indol-3-yl)ethyl)-5-(pyrrolidin-1-ylmethyl)isoxazole-3-carboxamide] | 227 nM |
| Cc1cc(C(=O)NCCc2c[nH]c3ccc(Cl)cc23)no1 [Example D114, N-(2-(5-chloro-1H-indol-3-yl)ethyl)-5-methylisoxazole-3-carboxamide] | 30 nM |
| O=C(NCCc1c[nH]c2ccc(Cl)cc12)c1noc(Cc2ccccc2Cl)n1 [Example D191, N-(2-(5-chloro-1H-indol-3-yl)ethyl)-5-(2-chlorobenzyl)-1,2,4-oxadiazole-3-carboxamide] | 25 nM |
| Cc1ccc(-c2nc(C)c(C(=O)NCCc3c[nH]c4ccccc34)s2)cc1 [Example D24, N-(2-(1H-indol-3-yl)ethyl)-4-methyl-2-p-tolylthiazole-5-carboxamide] | 34 nM |
| Cc1ccc2[nH]cc(CCNC(=O)c3cc(Cc4cccc(F)c4)on3)c2c1 [Example D14, 5-(3-fluorobenzyl)-N-(2-(5-methyl-1H-indol-3-yl)ethyl)isoxazole-3-carboxamide] | 19 nM |
| O=C(NCCc1c[nH]c2ccc(Cl)cc12)C1CCN(C2CC2)C1=O (stereo not drawn) [Example D149, N-(2-(5-chloro-1H-indol-3-yl)ethyl)-1-cyclopropyl-2-oxopyrrolidine-3-carboxamide] | 2090 nM |
| CCCc1cc(-c2nc(C)c(C(=O)NCCc3c[nH]c4ccccc34)s2)ccn1 [Example D33, N-(2-(1H-indol-3-yl)ethyl)-4-methyl-2-(2-propylpyridin-4-yl)thiazole-5-carboxamide] | 56 nM |
| O=C(NCCc1c[nH]c2ccc(Cl)cc12)C1CCN(c2ccc(F)cc2)C1=O (stereo not drawn) [Example D78, N-(2-(5-chloro-1H-indol-3-yl)ethyl)-1-(4-fluorophenyl)-2-oxopyrrolidine-3-carboxamide] | 691 nM |
| O=C(NCCc1c[nH]c2ccc(Cl)cc12)c1ccnn1-c1ccccc1 [Example D117, N-(2-(5-chloro-1H-indol-3-yl)ethyl)-1-phenyl-1H-pyrazole-5-carboxamide] | 979 nM |
| O=C(NCCc1c[nH]c2ccccc12)c1cc(Cc2cccc(F)c2)on1 [Example D31, N-(2-(1H-indol-3-yl)ethyl)-5-(3-fluorobenzyl)isoxazole-3-carboxamide] | 44 nM |
